Results published in patent US20040009904A1, “APL immunoreactive peptides, conjugates thereof and methods of treatment for aPL antibody-mediated pathologies” (priority 1995, published 2004).
Numbered stars: 1 amine (or outer) side, 2 acyl side, 3 side chain; on linkers, the order of the positions; unused ones are H or OH. Bridge positions count the residues as written; N and C are the ends. Square brackets hold non-standard residues; d marks the D form. Peptide text beside a SMILES is read from it. Abu(4-yl) = O=C([C@H](CC[*:3])N[*:1])[*:2]

Assays:
[1] = target: ACA-6701; test: Competitive binding peptide ACA ELISA, cardiolipin/β2-GPI-coated plates; set-up: species or system human; details: for IC50 Values, ACA-6701: cyclic thioether analogs; for Percent Inhibition of AffACA by Peptide Monomers, 6701: affinity purified antibody
Description: (§1) A variation of this assay uses microtitration plates coated with human β2-glycoprotein I/cardiolipin (β2-GPI/CL) instead of tetravalent peptide and tests the ability of monomeric peptides to block the binding of aPL antibody to the epitope(s) on β2-GPI/CL. In this assay, IgG-depleted human serum at an optimized concentration is used as a source of β2-GPI. The monomeric peptides at several concentrations are incubated with an optimized concentration of aPL antibody in a manner analogous to the assay which employs tetravalent peptide as a plate substrate. Following the incubation of aPL/peptide in (β2-GPI/CL) plates, antibody binding and the peptide concentration required for 50% inhibition is determined at half-maximal absorbance as in the tetravalent assay.
(§2) Peptide sequences for all five peptides immediately follow the table. All were tested using the competitive binding peptide ACA ELISA using CL/β2-GPI plates as described herein.
(§3) (B) Immulon I® 96-well, flat-bottom, polystyrene microtitration plates (Dynatech Laboratories, Inc., Chantilly, Va.) were coated with 30 μL/well of cardiolipin (CL, 50 μg; Sigma Chemical Co., St. Louis, Mo.) in ethanol. Two control wells received 30 μL ethanol only. After overnight evaporation at 4° C., each well was blocked with 200 μL of 5% (w/v) fish gelatin in PBS for 2 hours at RT.
(§4) The CL/β2-GPI microtitration plate was washed 5 times with TBS and 100 μL aliquots in duplicate from Eppendorf tubes #1, 2, 3, and 4 containing the antibody-peptide (or no peptide mixtures) were added to the wells. A volume of 100 μL from tube #4 was added to the duplicate control wells containing no cardiolipin. The microtitration plate was incubated for 1 hour at RT with agitation at 40 rpm in an orbital shaker (American Scientific, Rotator V), washed 5 times with TBS and then 100 μL of 1:1000 goat anti-human IgG alkaline phosphatase conjugate (Zymed, Cat No. 62-8422) in 0.5% (w/v) BSA-TBS was added. Following incubation for 1 hour at RT, the microtitration plate was again washed 5 times with TBS and the colorimetric enzyme detection developed by adding 100 μL of PMPP solution (7.8 g phenolphthalein monophosphate plus 69.5 g of 2-amino-2-methyl-1-propanol in 100 mL water stock solution diluted 1:26 with water). After 21 minutes, the reaction was stopped by adding 50 μL of 0.2 M Na2HPO4 (Mallinckrodt) to each well. Absorbance at 550 nm was read in a microplate reader (Bio-Tek Instruments, Model EL 311). The amount of peptide that inhibited ACA-6501 binding by 50%, the IC50, was calculated from the graph at the intersection of half-maximal absorbance with amount of peptide added.

[2] = target: ACA-6501; test: as above; set-up: species or system human; details: for with ACA 6501 150 ug/mL: Optimization of Peptide 3G3, inf = no 50% inhibition; for IC50 Values, ACA-6501: cyclic thioether analogs; for Percent Inhibition of AffACA by Peptide Monomers, 6501: affinity purified antibody
Procedure, shortened: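 Monomeric peptides at several amounts were preincubated ~1 h at RT with ACA-6501 serum (final 1:400), then added to cardiolipin-coated, fish-gelatin-blocked plates with β2-GPI for 1 h at RT. Bound IgG was detected with alkaline phosphatase anti-human IgG and phenolphthalein monophosphate, read at 550 nm. IC50 was the peptide amount at half-maximal absorbance.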

[3] = test system: ACA; test: Structure Activity Relationship of the Crossreactive ACA Epitope (relative activity); type: binding, human; details: LJP 688 = 100
Text: Peptide 6641/3G3 (LJP 688) was subjected to a number of analyses. The analyses included truncation at both the N-terminus and the C-terminus, disulfide substitution, substitution of alanine and glycine for amino acids in positions 2 through 8, substitution of branched aliphatic amino acids in positions 2, 4, 5 and 8, substitution of amino acids affecting conformation of the peptide, including substitution of α-methyl amino acids, substitution of basic amino acids in position 7, substitution of D-amino acids in positions 2 through 9, and the substitution of N-α-methyl amino acids in positions 1 through 9.

[4] = test system: ACA antibodies; test: Competitive binding peptide ACA ELISA, cardiolipin/β2-GPI-coated plates, panel of ACA antibodies (average); set-up: species or system human; details: average over nine antibodies
Description: as §1, §2
As noted in Section I above, one synthetic peptide, 6641/3G3 was tested against several high titer ACA antisera. This peptide appeared to be crossreactive with the vast majority of ACA antisera tested as illustrated in FIG. 14.
as §3, §4

[5] = test system: ACA-6644; test: Competitive binding peptide ACA ELISA, cardiolipin/β2-GPI-coated plates; set-up: species or system human; details: affinity purified antibody
Description: as §1, §2, §3, §4

[6] = test system: ACA-7004; test: as above; set-up: species or system human; details: affinity purified antibody
Description: as §1, §2, §3, §4

[7] = test system: ACA-7005; test: as above; set-up: species or system human; details: affinity purified antibody
Description: as §1, §2, §3, §4

[8] = test system: ACA-6638; test: as above; set-up: species or system human; details: affinity purified antibody
Description: as §1, §2, §3, §4

[9] = test system: ACA-6903; test: as above; set-up: species or system human; details: affinity purified antibody
Description: as §1, §2, §3, §4

[10] = test system: ACA-6641; test: as above; set-up: species or system human; details: affinity purified antibody
Description: as §1, §2, §3, §4

[11] = test system: ACA-6626; test: as above; set-up: species or system human; details: affinity purified antibody
Description: as §1, §2, §3, §4

[12] = test system: ACA-6501; test: Phage-ELISA; type: binding, human; details: phage clones coated on wells, affACA-6501 2.5 μg/mL
Description: This method of selecting phage requires very tight binding of the insert to the screening antibody. Phage are directly coated onto wells of a microtitration plate and incubated with the screening antibody. Following washes to remove unbound antibody, an anti-human IgG alkaline phosphatase conjugate is added to bind any aPL antibodies bound to the phage. APL antibodies are then detected by adding a calorimetric substrate to the well which will react with alkaline phosphatase according to methods well known in the art.
Three mL cultures were prepared from 35 clones previously isolated with affinity purified ACA-6501 in several phage library screens as well as one fUSE 2 phage clone lacking a peptide insert which was used as a control. After centrifugation for 3 minutes at 17,000×g, 100 μL from each phage supernatant (adjusted to −2×10^11 particles/mL, based on absorbance) was added to microtitration plate wells (Falcon, Becton-Dickinson Labware, Lincoln Park, N.Y.) and allowed to incubate overnight at 4° C. Following four washes with TBS 7.4, the plate was blocked with 125 μL of 0.5% BSA/TBS for 1 hour at RT. After another four TBS washes, 100 μL of affACA-6501 previously diluted to 2.5 μg/mL in TBS/BSA was added to each well and allowed to incubate 1 hour at 37° C. Following an additional four washes, 100 μL anti-human IgG diluted 1:1000 in TBS/0.5% Tween was added to each well. After 1 hour at RT, enzyme substrate was added and the incubation allowed to proceed for 2 hours. Following the addition of 50 μL 0.2 M Na2HPO4 to stop the reaction, absorbance was measured at 550 nm in the automated plate absorbance reader. […] The sequences for these clones are showvn in Table 2.

## CC(C)C[C@@H]1NC(=O)[C@H](CCCCN)NC(=O)CNC(=O)[C@H](CC(C)C)NC(=O)[C@H](C(C)C)NC(=O)CNC(=O)[C@H](CC(C)C)NC(=O)[C@@H](N)CCSC[C@@H](C(=O)O)NC1=O [LJP 699] (H-[Abu(4-yl)]LGVLGKLC-OH; thioether 1-9)
[1]
  IC50 Values, ACA-6701: 3.0 μg/0.1 mL
[2]
  with ACA 6501 150 ug/mL: 46 µg/mL
  IC50 Values, ACA-6501: 4.6 μg/0.1 mL
[3]
  Relative Activity: 1.6

## AGP DGNIADPRC PG (DGNIADPRCPG) [6626/4C7]
[4]; peptide 1 mg/mL
  Percent Inhibition of AffACA by Peptide Monomers, Ave.: 68%
[5]; peptide 1 mg/mL
  Percent Inhibition of AffACA by Peptide Monomers, 6644: 45%
[6]; peptide 1 mg/mL
  Percent Inhibition of AffACA by Peptide Monomers, 7004: 99%
[1]; peptide 1 mg/mL
  Percent Inhibition of AffACA by Peptide Monomers, 6701: 69%
[7]; peptide 1 mg/mL
  Percent Inhibition of AffACA by Peptide Monomers, 7005: 54%
[8]; peptide 1 mg/mL
  Percent Inhibition of AffACA by Peptide Monomers, 6638: 96%
[9]; peptide 1 mg/mL
  Percent Inhibition of AffACA by Peptide Monomers, 6903: 77%
[10]; peptide 1 mg/mL
  Percent Inhibition of AffACA by Peptide Monomers, 6641: 45%
[11]; peptide 1 mg/mL
  Percent Inhibition of AffACA by Peptide Monomers, 6626: 88%
[2]; peptide 1 mg/mL
  Percent Inhibition of AffACA by Peptide Monomers, 6501: 39%

## CLVLALDRC [3B6, ACA-6501 phage clone insert]
[12]
  signal in the phage-ELISA: significant signals

## CC(C)C[C@@H]1NC(=O)[C@H](CCCCN)NC(=O)CNC(=O)[C@@H](CC(C)C)NC(=O)[C@@H](C(C)C)NC(=O)CNC(=O)[C@H](CC(C)C)NC(=O)[C@@H](N)CSSC[C@@H](C(=O)O)NC1=O [C L G dV dL G K L C] (H-CLG[dV][dL]GKLC-OH; disulfide 1-9)
[2]
  with ACA 6501 150 ug/mL: 50 µg/mL
[3]
  Relative Activity: 5.9

## CTILTLDRC [2H2, ACA-6501 phage clone insert]
[12]
  signal in the phage-ELISA: significant signals

## GILALDYV GG (GILALDYVGG) [6644/CBf]
[4]; peptide 200 μg/mL
  Percent Inhibition of AffACA by Peptide Monomers, Ave.: 39%
[5]; peptide 200 μg/mL
  Percent Inhibition of AffACA by Peptide Monomers, 6644: 18%
[6]; peptide 200 μg/mL
  Percent Inhibition of AffACA by Peptide Monomers, 7004: 54%
[1]; peptide 200 μg/mL
  Percent Inhibition of AffACA by Peptide Monomers, 6701: 22%
[7]; peptide 200 μg/mL
  Percent Inhibition of AffACA by Peptide Monomers, 7005: 57%
[8]; peptide 200 μg/mL
  Percent Inhibition of AffACA by Peptide Monomers, 6638: 60%
[9]; peptide 200 μg/mL
  Percent Inhibition of AffACA by Peptide Monomers, 6903: 43%
[10]; peptide 200 μg/mL
  Percent Inhibition of AffACA by Peptide Monomers, 6641: 28%
[11]; peptide 200 μg/mL
  Percent Inhibition of AffACA by Peptide Monomers, 6626: 37%
[2]; peptide 200 μg/mL
  Percent Inhibition of AffACA by Peptide Monomers, 6501: 37%

## CC(C)C[C@@H]1NC(=O)[C@H](CCCCN)NC(=O)CNC(=O)[C@H](CC(C)C)NC(=O)[C@H](C(C)C)NC(=O)CNC(=O)[C@H](CC(C)C)NC(=O)[C@@H](N)CSSC[C@@H](C(=O)O)NC1=O [LJP 690, CLGVLGKLC] (H-CLGVLGKLC-OH; disulfide 1-9)
[1]
  IC50 Values, ACA-6701: 4.0 μg/0.1 mL
[2]
  IC50 Values, ACA-6501: 10.0 μg/0.1 mL
[3]
  Relative Activity: 3.5

## CLGVLGALC [C L G V L G A L C]
[2]
  with ACA 6501 150 ug/mL: inf
[3]
  Relative Activity: ∞

## CC(C)C[C@@H]1NC(=O)[C@H](CCCCN)NC(=O)[C@H](C)NC(=O)[C@H](CC(C)C)NC(=O)[C@H](C(C)C)NC(=O)CNC(=O)[C@H](CC(C)C)NC(=O)[C@@H](N)CSSC[C@@H](C(=O)O)NC1=O [peptide 925, CLGVLAKLC] (H-CLGVLAKLC-OH; disulfide 1-9)
[2]
  with ACA 6501 150 ug/mL: 40 µg/mL
[3]
  Relative Activity: 1.8

## CLGVAGKLC [C L G V A G K L C]
[2]
  with ACA 6501 150 ug/mL: inf
[3]
  Relative Activity: ∞

## AGP LSDPGYVRNIFH PG (LSDPGYVRNIFHPG) [6701/3B1]
[4]; peptide 1 mg/mL
  Percent Inhibition of AffACA by Peptide Monomers, Ave.: 52%
[5]; peptide 1 mg/mL
  Percent Inhibition of AffACA by Peptide Monomers, 6644: 37%
[6]; peptide 1 mg/mL
  Percent Inhibition of AffACA by Peptide Monomers, 7004: 72%
[1]; peptide 1 mg/mL
  Percent Inhibition of AffACA by Peptide Monomers, 6701: 96%
[7]; peptide 1 mg/mL
  Percent Inhibition of AffACA by Peptide Monomers, 7005: 23%
[8]; peptide 1 mg/mL
  Percent Inhibition of AffACA by Peptide Monomers, 6638: 65%
[9]; peptide 1 mg/mL
  Percent Inhibition of AffACA by Peptide Monomers, 6903: 51%
[10]; peptide 1 mg/mL
  Percent Inhibition of AffACA by Peptide Monomers, 6641: 43%
[11]; peptide 1 mg/mL
  Percent Inhibition of AffACA by Peptide Monomers, 6626: 43%
[2]; peptide 1 mg/mL
  Percent Inhibition of AffACA by Peptide Monomers, 6501: 41%

## CILLAHDRC [3E7, ACA-6501 phage clone insert]
[12]
  signal in the phage-ELISA: significant signals
